In patent US20250270707A1, “NON-TRIAZOLE IMIDAZOLINE AND AMIDE COMPOUNDS AND METHODS FOR INHIBITING CORROSION IN INDUSTRIAL WATER TREATMENT” (CHEMTREAT, INC., priority 2023, published 2025):

Columns and labels:
[1] = Corrosion rate by LPR sweep, copper coupons in synthetic water, 50° C., 1 ppm free chlorine after 0.5 hrs (Examples 1 and 2); conditions: for corrosion inhibition properties over the entire 18 hour period (in words) / corrosion resistance when free chlorine was added (in words): Example 2
Method: (§1) One liter samples of synthetic water were each dosed with the compositions in Table 1.
(§2) The apparatus used for the corrosion testing was a Gamry Multiport Corrosion Cell and Gamry Reference 600+potentiostat with multiplexor. Copper coupons (CDA110) were added to the sample cells containing neutral water (pH 7.5), and the cells were dosed with 50 ppm of scale inhibitor (co-polymer and 2-phosphonobutane-1,2,4-yricarboxylic acid) and heated to 50° C. and maintained at this temperature throughout the testing. The cells were continuously stirred at a speed of 350 rpm. A cylindrical working electrode was submerged into the test solutions, and an LPR sweep (linear polarization resistance) was performed every hour for 18 hours. After the 0.5 hrs mark, 1 ppm of free chlorine was dosed into the corrosion cell.
(§3) One liter samples of the synthetic water described above with respect to Example 1 were each dosed with the compositions in Table 5 and processed under conditions similar to Example 1.

[2] = Cl2 demand in the corrosion cell test (Examples 1 and 2); type: physicochemical
Method: as §1, §2, §3

CCCCCCCC(=O)NCCN(CCOCCC(=O)[O-])CCC(=O)[O-].[Na+].[Na+] [DCADPP, Disodium Capryloamphodipropionate]
CR Average (10-18 hrs) ([1]; 2 ppm): 0.304 mpy | CR Peak ([1]; 2 ppm): 2.169 mpy | corrosion rate ([1]; 2 ppm, 0 hrs): 0.0293 mpy | corrosion rate ([1]; 2 ppm, 1 hrs): 2.1690 mpy | corrosion rate ([1]; 2 ppm, 2 hrs): 1.4770 mpy | corrosion rate ([1]; 2 ppm, 3 hrs): 1.3090 mpy | corrosion rate ([1]; 2 ppm, 4 hrs): 0.6705 mpy | corrosion rate ([1]; 2 ppm, 5 hrs): 0.6007 mpy | corrosion rate ([1]; 2 ppm, 6 hrs): 0.6353 mpy | corrosion rate ([1]; 2 ppm, 7 hrs): 0.5403 mpy | corrosion rate ([1]; 2 ppm, 8 hrs): 0.4352 mpy | corrosion rate ([1]; 2 ppm, 9 hrs): 0.3962 mpy | corrosion rate ([1]; 2 ppm, 10 hrs): 0.3671 mpy | corrosion rate ([1]; 2 ppm, 11 hrs): 0.3426 mpy | corrosion rate ([1]; 2 ppm, 12 hrs): 0.3293 mpy | corrosion rate ([1]; 2 ppm, 13 hrs): 0.3130 mpy | corrosion rate ([1]; 2 ppm, 14 hrs): 0.2994 mpy | corrosion rate ([1]; 2 ppm, 15 hrs): 0.2826 mpy | corrosion rate ([1]; 2 ppm, 16 hrs): 0.2749 mpy | corrosion rate ([1]; 2 ppm, 17 hrs): 0.2691 mpy | corrosion rate ([1]; 2 ppm, 18 hrs): 0.2604 mpy | corrosion inhibition properties over the entire 18 hour period (in words) ([1]; 2 ppm): inferior corrosion inhibition properties | corrosion resistance when free chlorine was added (in words) ([1]; 2 ppm): substantial deterioration in corrosion resistance | Cl2 Demand ([2]; 2 ppm): 1.0 mg/L

CCCCCCCC(=O)NCCN(CCOCC(=O)[O-])CC(=O)[O-].[Na+].[Na+] [DCyADAA, Disodium Capryloamphodiacetate]
CR Average (10-18 hrs) ([1]; 2 ppm): 0.271 mpy | CR Peak ([1]; 2 ppm): 2.854 mpy | corrosion rate ([1]; 2 ppm, 0 hrs): 0.0230 mpy | corrosion rate ([1]; 2 ppm, 1 hrs): 2.8540 mpy | corrosion rate ([1]; 2 ppm, 2 hrs): 1.5850 mpy | corrosion rate ([1]; 2 ppm, 3 hrs): 1.3860 mpy | corrosion rate ([1]; 2 ppm, 4 hrs): 0.5261 mpy | corrosion rate ([1]; 2 ppm, 5 hrs): 0.6207 mpy | corrosion rate ([1]; 2 ppm, 6 hrs): 0.5852 mpy | corrosion rate ([1]; 2 ppm, 7 hrs): 0.4766 mpy | corrosion rate ([1]; 2 ppm, 8 hrs): 0.4185 mpy | corrosion rate ([1]; 2 ppm, 9 hrs): 0.3747 mpy | corrosion rate ([1]; 2 ppm, 10 hrs): 0.3416 mpy | corrosion rate ([1]; 2 ppm, 11 hrs): 0.3181 mpy | corrosion rate ([1]; 2 ppm, 12 hrs): 0.2953 mpy | corrosion rate ([1]; 2 ppm, 13 hrs): 0.2800 mpy | corrosion rate ([1]; 2 ppm, 14 hrs): 0.2681 mpy | corrosion rate ([1]; 2 ppm, 15 hrs): 0.2352 mpy | corrosion rate ([1]; 2 ppm, 16 hrs): 0.2411 mpy | corrosion rate ([1]; 2 ppm, 17 hrs): 0.2394 mpy | corrosion rate ([1]; 2 ppm, 18 hrs): 0.2217 mpy | corrosion inhibition properties over the entire 18 hour period (in words) ([1]; 2 ppm): inferior corrosion inhibition properties | corrosion resistance when free chlorine was added (in words) ([1]; 2 ppm): substantial deterioration in corrosion resistance | Cl2 Demand ([2]; 2 ppm): 1.1 mg/L

CCCCCCCCCCCC(=O)NCCN(CCOCC(=O)[O-])CC(=O)[O-].[Na+].[Na+] [DLADAA, Disodium Lauroamphodiacetate]
CR Average (10-18 hrs) ([1]; 2 ppm): 0.036 mpy | CR Peak ([1]; 2 ppm): 0.392 mpy | corrosion rate ([1]; 2 ppm, 0 hrs): 0.0175 mpy | corrosion rate ([1]; 2 ppm, 1 hrs): 0.3923 mpy | corrosion rate ([1]; 2 ppm, 2 hrs): 0.3065 mpy | corrosion rate ([1]; 2 ppm, 3 hrs): 0.2159 mpy | corrosion rate ([1]; 2 ppm, 4 hrs): 0.1420 mpy | corrosion rate ([1]; 2 ppm, 5 hrs): 0.1385 mpy | corrosion rate ([1]; 2 ppm, 6 hrs): 0.1059 mpy | corrosion rate ([1]; 2 ppm, 7 hrs): 0.0894 mpy | corrosion rate ([1]; 2 ppm, 8 hrs): 0.0705 mpy | corrosion rate ([1]; 2 ppm, 9 hrs): 0.0631 mpy | corrosion rate ([1]; 2 ppm, 10 hrs): 0.0512 mpy | corrosion rate ([1]; 2 ppm, 11 hrs): 0.0461 mpy | corrosion rate ([1]; 2 ppm, 12 hrs): 0.0419 mpy | corrosion rate ([1]; 2 ppm, 13 hrs): 0.0378 mpy | corrosion rate ([1]; 2 ppm, 14 hrs): 0.0347 mpy | corrosion rate ([1]; 2 ppm, 15 hrs): 0.0304 mpy | corrosion rate ([1]; 2 ppm, 16 hrs): 0.0282 mpy | corrosion rate ([1]; 2 ppm, 17 hrs): 0.0262 mpy | corrosion rate ([1]; 2 ppm, 18 hrs): 0.0242 mpy | corrosion inhibition properties over the entire 18 hour period (in words) ([1]; 2 ppm): good corrosion inhibition properties | Cl2 Demand ([2]; 2 ppm): 0.7 mg/L

O=C([O-])C(O)[C@H](O)[C@@H](O)[C@H](O)[C@H](O)CO.[Na+] (stereo partly drawn) [Glucoheptonate, NaGlucoheptonate, reference compound]
CR Average (10-18 hrs) ([1]; 5 ppm): 0.278 mpy | CR Peak ([1]; 5 ppm): 2.670 mpy | corrosion rate ([1]; 5 ppm, 0 hrs): 0.074 mpy | corrosion rate ([1]; 5 ppm, 1 hrs): 2.670 mpy | corrosion rate ([1]; 5 ppm, 2 hrs): 2.004 mpy | corrosion rate ([1]; 5 ppm, 3 hrs): 1.238 mpy | corrosion rate ([1]; 5 ppm, 4 hrs): 0.784 mpy | corrosion rate ([1]; 5 ppm, 5 hrs): 0.536 mpy | corrosion rate ([1]; 5 ppm, 6 hrs): 0.504 mpy | corrosion rate ([1]; 5 ppm, 7 hrs): 0.449 mpy | corrosion rate ([1]; 5 ppm, 8 hrs): 0.357 mpy | corrosion rate ([1]; 5 ppm, 9 hrs): 0.331 mpy | corrosion rate ([1]; 5 ppm, 10 hrs): 0.311 mpy | corrosion rate ([1]; 5 ppm, 11 hrs): 0.297 mpy | corrosion rate ([1]; 5 ppm, 12 hrs): 0.288 mpy | corrosion rate ([1]; 5 ppm, 13 hrs): 0.280 mpy | corrosion rate ([1]; 5 ppm, 14 hrs): 0.274 mpy | corrosion rate ([1]; 5 ppm, 15 hrs): 0.269 mpy | corrosion rate ([1]; 5 ppm, 16 hrs): 0.267 mpy | corrosion rate ([1]; 5 ppm, 17 hrs): 0.260 mpy | corrosion rate ([1]; 5 ppm, 18 hrs): 0.257 mpy | Cl2 Demand ([2]; 5 ppm): 0.5 mg/L

CCCCCCCCCCCCN(CCC(=O)[O-])CCC(=O)O.[Na+] [SL, Sodium Lauriminodipropionate, reference compound]
CR Average (10-18 hrs) ([1]; 2 ppm): 0.067 mpy | CR Peak ([1]; 2 ppm): 0.932 mpy | corrosion rate ([1]; 2 ppm, 0 hrs): 0.0368 mpy | corrosion rate ([1]; 2 ppm, 1 hrs): 0.9317 mpy | corrosion rate ([1]; 2 ppm, 2 hrs): 0.4889 mpy | corrosion rate ([1]; 2 ppm, 3 hrs): 0.3498 mpy | corrosion rate ([1]; 2 ppm, 4 hrs): 0.2185 mpy | corrosion rate ([1]; 2 ppm, 5 hrs): 0.1644 mpy | corrosion rate ([1]; 2 ppm, 6 hrs): 0.1286 mpy | corrosion rate ([1]; 2 ppm, 7 hrs): 0.1128 mpy | corrosion rate ([1]; 2 ppm, 8 hrs): 0.0992 mpy | corrosion rate ([1]; 2 ppm, 9 hrs): 0.0910 mpy | corrosion rate ([1]; 2 ppm, 10 hrs): 0.0854 mpy | corrosion rate ([1]; 2 ppm, 11 hrs): 0.0779 mpy | corrosion rate ([1]; 2 ppm, 12 hrs): 0.0757 mpy | corrosion rate ([1]; 2 ppm, 13 hrs): 0.0685 mpy | corrosion rate ([1]; 2 ppm, 14 hrs): 0.0643 mpy | corrosion rate ([1]; 2 ppm, 15 hrs): 0.0613 mpy | corrosion rate ([1]; 2 ppm, 16 hrs): 0.0580 mpy | corrosion rate ([1]; 2 ppm, 17 hrs): 0.0543 mpy | corrosion rate ([1]; 2 ppm, 18 hrs): 0.0536 mpy | corrosion inhibition properties over the entire 18 hour period (in words) ([1]; 2 ppm): did not perform well | Cl2 Demand ([2]; 2 ppm): 0.7 mg/L

CCCCCCCCCCCCCCCCCCN(C(=O)CC(C(=O)[O-])S(=O)(=O)[O-])C(CC(=O)[O-])C(=O)[O-].[Na+].[Na+].[Na+].[Na+] (stereo not drawn) [TDSS, Tetrasodium Dicarboxyethyl Stearyl Sulfosuccinamate, reference compound]
CR Average (10-18 hrs) ([1]; 7 ppm): 0.141 mpy | CR Peak ([1]; 7 ppm): 0.243 mpy | corrosion rate ([1]; 7 ppm, 0 hrs): 0.0149 mpy | corrosion rate ([1]; 7 ppm, 1 hrs): 0.1875 mpy | corrosion rate ([1]; 7 ppm, 2 hrs): 0.2432 mpy | corrosion rate ([1]; 7 ppm, 3 hrs): 0.2313 mpy | corrosion rate ([1]; 7 ppm, 4 hrs): 0.1839 mpy | corrosion rate ([1]; 7 ppm, 5 hrs): 0.1611 mpy | corrosion rate ([1]; 7 ppm, 6 hrs): 0.1349 mpy | corrosion rate ([1]; 7 ppm, 7 hrs): 0.1387 mpy | corrosion rate ([1]; 7 ppm, 8 hrs): 0.1304 mpy | corrosion rate ([1]; 7 ppm, 9 hrs): 0.1291 mpy | corrosion rate ([1]; 7 ppm, 10 hrs): 0.1381 mpy | corrosion rate ([1]; 7 ppm, 11 hrs): 0.1431 mpy | corrosion rate ([1]; 7 ppm, 12 hrs): 0.1363 mpy | corrosion rate ([1]; 7 ppm, 13 hrs): 0.1485 mpy | corrosion rate ([1]; 7 ppm, 14 hrs): 0.1371 mpy | corrosion rate ([1]; 7 ppm, 15 hrs): 0.1428 mpy | corrosion rate ([1]; 7 ppm, 16 hrs): 0.1422 mpy | corrosion rate ([1]; 7 ppm, 17 hrs): 0.1375 mpy | corrosion rate ([1]; 7 ppm, 18 hrs): 0.1422 mpy | Cl2 Demand ([2]; 7 ppm): 0.8 mg/L

Disodium Coco Imidazoline Dicarboxylate [DCIMDCC]
CR Average (10-18 hrs) ([1]; 2 ppm): 0.025 mpy | CR Peak ([1]; 2 ppm): 0.267 mpy | corrosion rate ([1]; 2 ppm, 0 hrs): 0.0395 mpy | corrosion rate ([1]; 2 ppm, 1 hrs): 0.2665 mpy | corrosion rate ([1]; 2 ppm, 2 hrs): 0.1537 mpy | corrosion rate ([1]; 2 ppm, 3 hrs): 0.0908 mpy | corrosion rate ([1]; 2 ppm, 4 hrs): 0.0856 mpy | corrosion rate ([1]; 2 ppm, 5 hrs): 0.0744 mpy | corrosion rate ([1]; 2 ppm, 6 hrs): 0.0600 mpy | corrosion rate ([1]; 2 ppm, 7 hrs): 0.0499 mpy | corrosion rate ([1]; 2 ppm, 8 hrs): 0.0409 mpy | corrosion rate ([1]; 2 ppm, 9 hrs): 0.0375 mpy | corrosion rate ([1]; 2 ppm, 10 hrs): 0.0339 mpy | corrosion rate ([1]; 2 ppm, 11 hrs): 0.0313 mpy | corrosion rate ([1]; 2 ppm, 12 hrs): 0.0283 mpy | corrosion rate ([1]; 2 ppm, 13 hrs): 0.0266 mpy | corrosion rate ([1]; 2 ppm, 14 hrs): 0.0243 mpy | corrosion rate ([1]; 2 ppm, 15 hrs): 0.0224 mpy | corrosion rate ([1]; 2 ppm, 16 hrs): 0.0209 mpy | corrosion rate ([1]; 2 ppm, 17 hrs): 0.0196 mpy | corrosion rate ([1]; 2 ppm, 18 hrs): 0.0188 mpy | Cl2 Demand ([2]; 2 ppm): 0.9 mg/L

Disodium Cocoamphodiacetate [DCADAA]
CR Average (10-18 hrs) ([1]; 2 ppm): 0.036 mpy | CR Peak ([1]; 2 ppm): 0.180 mpy | corrosion rate ([1]; 2 ppm, 0 hrs): 0.0198 mpy | corrosion rate ([1]; 2 ppm, 1 hrs): 0.1804 mpy | corrosion rate ([1]; 2 ppm, 2 hrs): 0.1576 mpy | corrosion rate ([1]; 2 ppm, 3 hrs): 0.1608 mpy | corrosion rate ([1]; 2 ppm, 4 hrs): 0.1140 mpy | corrosion rate ([1]; 2 ppm, 5 hrs): 0.1360 mpy | corrosion rate ([1]; 2 ppm, 6 hrs): 0.0910 mpy | corrosion rate ([1]; 2 ppm, 7 hrs): 0.0780 mpy | corrosion rate ([1]; 2 ppm, 8 hrs): 0.0629 mpy | corrosion rate ([1]; 2 ppm, 9 hrs): 0.0545 mpy | corrosion rate ([1]; 2 ppm, 10 hrs): 0.0516 mpy | corrosion rate ([1]; 2 ppm, 11 hrs): 0.0459 mpy | corrosion rate ([1]; 2 ppm, 12 hrs): 0.0419 mpy | corrosion rate ([1]; 2 ppm, 13 hrs): 0.0375 mpy | corrosion rate ([1]; 2 ppm, 14 hrs): 0.0349 mpy | corrosion rate ([1]; 2 ppm, 15 hrs): 0.0316 mpy | corrosion rate ([1]; 2 ppm, 16 hrs): 0.0290 mpy | corrosion rate ([1]; 2 ppm, 17 hrs): 0.0246 mpy | corrosion rate ([1]; 2 ppm, 18 hrs): 0.0252 mpy | corrosion inhibition properties over the entire 18 hour period (in words) ([1]; 2 ppm): good corrosion inhibition properties | Cl2 Demand ([2]; 2 ppm): 0.6 mg/L
